# “Also recorded” adds a separate entry of the source.
# What was measured:
# [1] = Cytotoxicity in mock-infected MT-4 cells, MTT method; type: cell-based; conditions: human, mock-infected MT-4 cells, CC50, mock-infected MT-4 cells
# MT-4 cells = assay: as above; type: cell-based
# [2] = system: HIV-1 mutant strain L100I; assay: microbe, parasite or virus in culture; type: cell-based; conditions: Human immunodeficiency virus 1, MT4, read-out: EC50 L100I
# [3] = system: HIV-1 mutant strain K103N; assay: microbe, parasite or virus in culture; type: cell-based; conditions: Human immunodeficiency virus 1, MT4, read-out: EC50 K103N
# [4] = system: HIV-1 mutant strain Y181C; assay: microbe, parasite or virus in culture; type: cell-based; conditions: Human immunodeficiency virus 1, MT4, read-out: EC50 Y181C
# [5] = system: HIV-1 mutant strain Y188L; assay: microbe, parasite or virus in culture; type: cell-based; conditions: Human immunodeficiency virus 1, MT4, read-out: EC50 Y188L
# [6] = system: HIV-1 mutant strain E138K; assay: microbe, parasite or virus in culture; type: cell-based; conditions: Human immunodeficiency virus 1, MT4, read-out: EC50 E138K
# [7] = system: HIV-1 mutant strain F227L + V106A; assay: microbe, parasite or virus in culture; type: cell-based; conditions: Human immunodeficiency virus 1, MT4, read-out: EC50 F227L + V106A
# [8] = system: HIV-1 mutant strain RES056 (K103N + Y181C); assay: microbe, parasite or virus in culture; type: cell-based; conditions: Human immunodeficiency virus 1, MT4, read-out: EC50 RES056
# SPF Kunming mice [9] = assay: Acute toxicity experiment in mice; type: in vivo; conditions: 7 days
# SPF Kunming mice [10] = assay: Subacute toxicity experiment in mice; type: in vivo
# [11] = In vivo pharmacokinetics study in rats; conditions: male, Sprague-Dawley, rat, plasma
# HIV-1 WT strain (IIIB) = assay: Anti-HIV activity against WT HIV-1; conditions: for SI IIIB (CC50/EC50 ratio): WT HIV-1 IIIB
structure (smiles),measurement,setting,value
"Cc1cc(C)cc(S(=O)(=O)c2c(C(=O)NCCCCNS(=O)(=O)c3cccnc3)[nH]c3ccc(Cl)cc23)c1 [R10L4, 5-Chloro-3-((3,5-dimethylphenyl)sulfonyl)-N-(4-(pyridine-3-sulfonamido)butyl)-1H-indole-2-carboxamide]",CC50 at 5 days,[1],216000 nM
same,fold decrease in cytotoxicity compared to IAS-0,"MT-4 cells; CC50, MT-4 cells",~40 fold
same,CC50,MT-4 cells; mock-infected MT-4 cells,216500 ± 520 nM
same,EC50,[2],17 ± 2 nM
same,EC50,[3],68 ± 12 nM
same,EC50,[4],45 ± 10 nM
same,EC50,[5],540 ± 87 nM
same,EC50,[6],17 ± 7 nM
same,EC50,[7],87 ± 35 nM
same,EC50,[8],5260 nM
same,"mortality or behavior changes, acute toxicity",SPF Kunming mice [9]; 800 mg/kg intragastric,no remarkable in vivo toxic effects; also recorded: did not lead to any mortality or observable behavior changes
same,"body weight, acute toxicity","SPF Kunming mice [9]; 800 mg/kg, compared with blank group",only insignificant body weight loss was seen
same,"mortality or behavior changes, subacute toxicity","SPF Kunming mice [10]; 50 mg/kg p.o., 12 days",no remarkable in vivo toxic effects; also recorded: did not lead to any mortality or observable behavior changes
same,"body weight, subacute toxicity","SPF Kunming mice [10]; 50 mg/kg, 12 days, compared with blank group",only insignificant body weight loss was seen
same,pathology of hematoxylin and eosin-stained slices from vital organs,"SPF Kunming mice [10]; end of subacute toxicity test, heart, liver, spleen, lung, kidney",no marked pathological abnormalities
same,AUC(0-inf),"[11]; iv, 2 mg/kg",481 ± 63.3 ng·h/mL
same,AUC(0-t),"[11]; iv, 2 mg/kg",472 ± 63.4 ng·h/mL
same,MRT inf,"[11]; iv, 2 mg/kg",1.45 ± 0.09 h
same,Tmax,"[11]; iv, 2 mg/kg",0.083 h
same,clearance,"[11]; iv, 2 mg/kg",70.2 mL/min/kg
same,half-life,"[11]; iv, 2 mg/kg",1.61 ± 0.04 h
same,Cmax,"[11]; iv, 2 mg/kg, i.v. 2 mg/kg",657 ± 99.2 ng/mL
same,bioavailability,"[11]; oral, 10 mg/kg",8.5%
same,AUC(0-inf),"[11]; po, 10 mg/kg",203 ± 38.4 ng·h/mL
same,AUC(0-t),"[11]; po, 10 mg/kg",199 ± 38.7 ng·h/mL
same,MRT inf,"[11]; po, 10 mg/kg",2.27 ± 0.05 h
same,Tmax,"[11]; po, 10 mg/kg",0.83 ± 0.15 h
same,half-life,"[11]; po, 10 mg/kg",1.78 ± 0.25 h
same,Cmax,"[11]; po, 10 mg/kg, p.o. 10 mg/kg",≤ 80 ng/mL
same,"selectivity index, times higher than that of IAS-0",HIV-1 WT strain (IIIB); WT HIV-1,~14 times
same,SI IIIB (CC50/EC50 ratio),HIV-1 WT strain (IIIB),"30,930"
"Cc1cc(C)cc(S(=O)(=O)c2c(C(=O)NCCCCNS(=O)(=O)c3ccc(Cl)cc3)[nH]c3ccc(Cl)cc23)c1 [R7L4, 5-Chloro-3-((3,5-dimethylphenyl)sulfonyl)-N-(4-((4-chlorophenyl)sulfonamido)butyl)-1H-indole-2-carboxamide]",CC50 at 5 days,[1],89300 ± 17800 nM
same,EC50,[2],74 ± 21 nM
same,EC50,[3],130 ± 48 nM
same,EC50,[4],180 ± 16 nM
same,EC50,[5],1530 ± 720 nM
same,EC50,[6],51 ± 18 nM
same,EC50,[7],260 nM
same,EC50,[8],> 89300 nM
same,SI IIIB (CC50/EC50 ratio),HIV-1 WT strain (IIIB),"10,389"
"Cc1ccc(S(=O)(=O)NCCCCCNC(=O)c2[nH]c3ccc(Cl)cc3c2S(=O)(=O)c2cc(C)cc(C)c2)cc1 [R1L5, 5-Chloro-3-((3,5-dimethylphenyl)sulfonyl)-N-(5-((4-methylphenyl)sulfonamido)pentyl)-1H-indole-2-carboxamide]",CC50 at 5 days,[1],113000 ± 3740 nM
same,EC50,[2],170 ± 17 nM
same,EC50,[3],630 ± 17 nM
same,EC50,[4],230 ± 17 nM
same,EC50,[5],2530 ± 180 nM
same,EC50,[6],180 ± 17 nM
same,EC50,[7],380 ± 130 nM
same,EC50,[8],> 113000 nM
same,SI IIIB (CC50/EC50 ratio),HIV-1 WT strain (IIIB),4159
"Cc1cc(C)cc(S(=O)(=O)c2c(C(=O)NCCNS(=O)(=O)c3ccc(F)cc3)[nH]c3ccc(Cl)cc23)c1 [R4L2, 5-Chloro-3-((3,5-dimethylphenyl)sulfonyl)-N-(2-((4-fluorophenyl)sulfonamido)ethyl)-1H-indole-2-carboxamide]",CC50 at 5 days,[1],> 222000 nM
same,EC50,[2],210 ± 36 nM
same,EC50,[3],360 ± 160 nM
same,EC50,[4],370 ± 140 nM
same,EC50,[5],3000 ± 53 nM
same,EC50,[6],370 ± 110 nM
same,EC50,[7],830 ± 120 nM
same,EC50,[8],3230 ± 18 nM
same,SI IIIB (CC50/EC50 ratio),HIV-1 WT strain (IIIB),>7921
"Cc1cc(C)cc(S(=O)(=O)c2c(C(=O)NCCCNS(=O)(=O)c3ccc(F)cc3)[nH]c3ccc(Cl)cc23)c1 [R4L3, 5-Chloro-3-((3,5-dimethylphenyl)sulfonyl)-N-(3-((4-fluorophenyl)sulfonamido)propyl)-1H-indole-2-carboxamide]",CC50 at 5 days,[1],35000 ± 6970 nM
same,EC50,[2],240 ± 35 nM
same,EC50,[3],450 ± 100 nM
same,EC50,[4],690 ± 17 nM
same,EC50,[5],2840 ± 52 nM
same,EC50,[6],260 ± 17 nM
same,EC50,[7],1040 ± 35 nM
same,EC50,[8],3550 ± 350 nM
same,SI IIIB (CC50/EC50 ratio),HIV-1 WT strain (IIIB),901
"Cc1ccc(S(=O)(=O)NCCCNC(=O)c2[nH]c3ccc(Cl)cc3c2S(=O)(=O)c2cc(C)cc(C)c2)cc1 [R1L3, 5-Chloro-3-((3,5-dimethylphenyl)sulfonyl)-N-(3-((4-methylphenyl)sulfonamido)propyl)-1H-indole-2-carboxamide]",CC50 at 5 days,[1],168000 ± 23500 nM
same,EC50,[2],540 ± 420 nM
same,EC50,[3],730 ± 140 nM
same,EC50,[4],1190 ± 300 nM
same,EC50,[5],7140 ± 1400 nM
same,EC50,[6],210 ± 140 nM
same,EC50,[7],1260 ± 380 nM
same,EC50,[8],5970 ± 650 nM
same,SI IIIB (CC50/EC50 ratio),HIV-1 WT strain (IIIB),4586
"Cc1cc(C)cc(S(=O)(=O)c2c(C(=O)NCCCNS(=O)(=O)c3ccc(Cl)cc3)[nH]c3ccc(Cl)cc23)c1 [R7L3, 5-Chloro-3-((3,5-dimethylphenyl)sulfonyl)-N-(3-((4-chlorophenyl)sulfonamido)propyl)-1H-indole-2-carboxamide]",CC50 at 5 days,[1],> 211000 nM
same,EC50,[2],98 ± 52 nM
same,EC50,[3],220 nM
same,EC50,[4],570 ± 250 nM
same,EC50,[5],190 ± 190 nM
same,EC50,[6],610 ± 120 nM
same,EC50,[7],2610 ± 120 nM
same,EC50,[8],9000 ± 510 nM
same,SI IIIB (CC50/EC50 ratio),HIV-1 WT strain (IIIB),">12,913"
"Cc1cc(C)cc(S(=O)(=O)c2c(C(=O)NCCCCCNS(=O)(=O)c3ccc(C#N)cc3)[nH]c3ccc(Cl)cc23)c1 [R5L5, 5-Chloro-3-((3,5-dimethylphenyl)sulfonyl)-N-(5-((4-cyanophenyl)sulfonamido)pentyl)-1H-indole-2-carboxamide]",CC50 at 5 days,[1],> 204000 nM
same,EC50,[2],77 ± 23 nM
same,EC50,[3],560 ± 130 nM
same,EC50,[4],210 nM
same,EC50,[5],1700 ± 520 nM
same,EC50,[6],160 ± 16 nM
same,EC50,[7],340 ± 82 nM
same,EC50,[8],11900 ± 4900 nM
same,SI IIIB (CC50/EC50 ratio),HIV-1 WT strain (IIIB),>6158
"Cc1cc(C)cc(S(=O)(=O)c2c(C(=O)NCCCCCNS(=O)(=O)c3ccc(Cl)cc3)[nH]c3ccc(Cl)cc23)c1 [R7L5, 5-Chloro-3-((3,5-dimethylphenyl)sulfonyl)-N-(5-((4-chlorophenyl)sulfonamido)pentyl)-1H-indole-2-carboxamide]",CC50 at 5 days,[1],115000 ± 8890 nM
same,EC50,[2],61 ± 3.2 nM
same,EC50,[3],430 ± 140 nM
same,EC50,[4],190 nM
same,EC50,[5],3140 ± 950 nM
same,EC50,[6],52 ± 9 nM
same,EC50,[7],370 ± 110 nM
same,EC50,[8],> 115000 nM
same,SI IIIB (CC50/EC50 ratio),HIV-1 WT strain (IIIB),"11,132"
"Cc1cc(C)cc(S(=O)(=O)c2c(C(=O)NCCCCCNS(=O)(=O)c3ccccc3)[nH]c3ccc(Cl)cc23)c1 [R9L5, 5-Chloro-3-((3,5-dimethylphenyl)sulfonyl)-N-(5-(phenylsulfonamido)pentyl)-1H-indole-2-carboxamide]",CC50 at 5 days,[1],129000 ± 6850 nM
same,EC50,[2],44 ± 5 nM
same,EC50,[3],340 ± 51 nM
same,EC50,[4],220 ± 17 nM
same,EC50,[5],1460 ± 560 nM
same,EC50,[6],36 ± 7 nM
same,EC50,[7],220 ± 85 nM
same,EC50,[8],> 119000 nM
same,SI IIIB (CC50/EC50 ratio),HIV-1 WT strain (IIIB),8814
"Cc1cc(C)cc(S(=O)(=O)c2c(C(=O)NCCNS(=O)(=O)c3ccccc3)[nH]c3ccc(Cl)cc23)c1 [R9L2, 5-Chloro-3-((3,5-dimethylphenyl)sulfonyl)-N-(2-(phenylsulfonamido)ethyl)-1H-indole-2-carboxamide]",CC50 at 5 days,[1],185000 ± 8310 nM
same,EC50,[2],260 ± 110 nM
same,EC50,[3],240 ± 37 nM
same,EC50,[4],260 ± 73 nM
same,EC50,[5],2810 ± 290 nM
same,EC50,[6],220 ± 73 nM
same,EC50,[7],1120 ± 350 nM
same,EC50,[8],3140 ± 110 nM
same,SI IIIB (CC50/EC50 ratio),HIV-1 WT strain (IIIB),"13,509"

# — publication PMC10326263 (Acta Pharmaceutica Sinica. B, 2023)
